In patent US7459414B2, “Herbicides” (Syngenta Crop Protection, Inc., priority 2002, dated 2008):

Assays:
Format in all cases: in vivo
Avena (Ave) [1] = test: Example B4 post-emergence herbicidal action, MERGE oil additive 0.7% (Table B4); set-up: key: 1=total damage; 9=no action; conditions: 500 g of active substance per hectare; applied at 3- to 6-leaf stage; MERGE oil additive 0.7% by weight of the spray mixture; evaluation 3 weeks after application; scale of nine ratings
Description: (§1) Monocotyledonous and dicotyledonous weeds are grown in standard soil in plastics pots under greenhouse conditions. The test substances are applied to the test plants at the 3- to 6-leaf stage. The test substances are applied at a rate of application of 500 g of active substance per hectare in the form of an aqueous suspension (prepared from a 25% wettable powder (Example F3, b)) or in the form of an emulsion (prepared from a 25% emulsifiable concentrate (Example F1, c)) (500 liters of water/ha). The evaluation is carried out 3 weeks after application, using a scale of nine ratings (1=total damage, 9=no action). Ratings of from 1 to 4 (especially from 1 to 3) indicate good to very good herbicidal action. Herbicidal Action After the Emergence of the Plants (Post-emergence Action) of Compounds of the Present Invention (for Description See Example B2) Test plants: Avena (Ave), Lolium (Lol), Setaria (Set).

Setaria (Set) [2] = test: as above; set-up: key: 1=total damage; 9=no action; conditions: 500 g of active substance per hectare; applied at 3- to 6-leaf stage; MERGE oil additive 0.7% by weight of the spray mixture; evaluation 3 weeks after application; scale of nine ratings
Description: as §1

Lolium (Lol) [3] = test: as above; set-up: key: 1=total damage; 9=no action; conditions: 500 g of active substance per hectare; applied at 3- to 6-leaf stage; MERGE oil additive 0.7% by weight of the spray mixture; evaluation 3 weeks after application; scale of nine ratings
Description: as §1

Alopecurus (Alo) [4] = test: Example B1 pre-emergence herbicidal action (comparison test); set-up: key: 1=total damage; 9=no action; conditions: 500 g of active ingredient/ha; 3 weeks after application; scale of nine ratings, 1 to 4 = good to very good action
Description: (§2) Monocotyledonous and dicotyledonous weeds are sown in plastics pots in standard soil. Immediately after sowing, the test substances are applied in the form of an aqueous suspension (prepared from a 25% wettable powder (Example F3, b)) or in the form of an emulsion (prepared from a 25% emulsifiable concentrate (Example F1, c)) (500 liters of water/ha). The rate of application is 500 g of active substance/ha. The test plants are then grown in the greenhouse under optimum conditions. The evaluation is carried out 3 weeks after application, using a scale of nine ratings (1=total damage, 9=no action). Ratings of from 1 to 4 (especially from 1 to 3) indicate good to very good herbicidal action. Test plants: Alopecurus (Alo), Avena (Ave), Lolium (Lol), Setaria (Set), Panicum (Pan), Sorghum (Sor), Digitaria (Dig), Echinochloa (Ech) and Brachiaria (Bra).

Avena (Ave) [5] = test: as above; set-up: key: 1=total damage; 9=no action; conditions: 500 g of active ingredient/ha; 3 weeks after application; scale of nine ratings, 1 to 4 = good to very good action
Description: as §2

Sorghum (Sor) [6] = test: as above; set-up: key: 1=total damage; 9=no action; conditions: 500 g of active ingredient/ha; 3 weeks after application; scale of nine ratings, 1 to 4 = good to very good action
Description: as §2

Setaria (Set) [7] = test: as above; set-up: key: 1=total damage; 9=no action; conditions: 500 g of active ingredient/ha; 3 weeks after application; scale of nine ratings, 1 to 4 = good to very good action
Description: as §2

Echinochloa (Ech) = test: as above; set-up: key: 1=total damage; 9=no action; conditions: 500 g of active ingredient/ha; 3 weeks after application; scale of nine ratings, 1 to 4 = good to very good action
Description: as §2

Lolium (Lol) [8] = test: as above; set-up: key: 1=total damage; 9=no action; conditions: 500 g of active ingredient/ha; 3 weeks after application; scale of nine ratings, 1 to 4 = good to very good action
Description: as §2

Brachiaria (Bra) [9] = test: as above; set-up: key: 1=total damage; 9=no action; conditions: 500 g of active ingredient/ha; 3 weeks after application; scale of nine ratings, 1 to 4 = good to very good action
Description: as §2

Panicum (Pan) [10] = test: as above; set-up: key: 1=total damage; 9=no action; conditions: 500 g of active ingredient/ha; 3 weeks after application; scale of nine ratings, 1 to 4 = good to very good action
Description: as §2

Digitaria (Dig) [11] = test: as above; conditions: 500 g of active ingredient/ha; 3 weeks after application; scale of nine ratings, 1 to 4 = good to very good action
Description: as §2

Digitaria (Dig) [12] = test: Example B2 post-emergence herbicidal action (comparison test); conditions: 250 g of active ingredient/ha; 3- to 6-leaf stage; 3 weeks after application; scale of nine ratings, 1 to 4 = good to very good action
Description: (§3) Monocotyledonous and dicotyledonous weeds are grown in standard soil in plastics pots under greenhouse conditions. The test substances are applied to the test plants at the 3- to 6-leaf stage. […] suspension (prepared from a 25% wettable powder (Example F3, b)) or in the form of an emulsion (prepared from a 25% emulsifiable concentrate (Example F1, c)) (500 liters of water/ha). The evaluation is carried out 3 weeks after application, using a scale of nine ratings (1=total damage, 9=no action). Ratings of from 1 to 4 (especially from 1 to 3) indicate good to very good herbicidal action. Test plants: Alopecurus (Alo), Avena (Ave), Lolium (Lol), Setaria (Set), Panicum (Pan), Sorghum (Sor), Digitaria (Dig), Echinocloa (Ech) and Brachiaria (Bra).

Alopecurus (Alo) [13] = test: as above; set-up: key: 1=total damage; 9=no action; conditions: 250 g of active ingredient/ha; 3- to 6-leaf stage; 3 weeks after application; scale of nine ratings, 1 to 4 = good to very good action
Description: as §3

Avena (Ave) [14] = test: as above; set-up: key: 1=total damage; 9=no action; conditions: 250 g of active ingredient/ha; 3- to 6-leaf stage; 3 weeks after application; scale of nine ratings, 1 to 4 = good to very good action
Description: as §3

Sorghum (Sor) [15] = test: as above; set-up: key: 1=total damage; 9=no action; conditions: 250 g of active ingredient/ha; 3- to 6-leaf stage; 3 weeks after application; scale of nine ratings, 1 to 4 = good to very good action
Description: as §3

Setaria (Set) [16] = test: as above; set-up: key: 1=total damage; 9=no action; conditions: 250 g of active ingredient/ha; 3- to 6-leaf stage; 3 weeks after application; scale of nine ratings, 1 to 4 = good to very good action
Description: as §3

Lolium (Lol) [17] = test: as above; set-up: key: 1=total damage; 9=no action; conditions: 250 g of active ingredient/ha; 3- to 6-leaf stage; 3 weeks after application; scale of nine ratings, 1 to 4 = good to very good action
Description: as §3

Brachiaria (Bra) [18] = test: as above; set-up: key: 1=total damage; 9=no action; conditions: 250 g of active ingredient/ha; 3- to 6-leaf stage; 3 weeks after application; scale of nine ratings, 1 to 4 = good to very good action
Description: as §3

Panicum (Pan) [19] = test: as above; set-up: key: 1=total damage; 9=no action; conditions: 250 g of active ingredient/ha; 3- to 6-leaf stage; 3 weeks after application; scale of nine ratings, 1 to 4 = good to very good action
Description: as §3

Echinocloa (Ech) = test: as above; set-up: key: 1=total damage; 9=no action; conditions: 250 g of active ingredient/ha; 3- to 6-leaf stage; 3 weeks after application; scale of nine ratings, 1 to 4 = good to very good action
Description: as §3

Avena (Ave) [20] = test: Example B3 pre-emergence herbicidal action, MERGE oil additive 0.7% (Table B3); set-up: key: 1=total damage; 9=no action; conditions: 500 g of active substance/ha; MERGE oil additive 0.7% by weight of the spray mixture; evaluation 3 weeks after application; scale of nine ratings
Description: (§4) Monocotyledonous and dicotyledonous weeds are sown in standard soil in plastics pots. Immediately after sowing, the test substances are applied in the form of an aqueous suspension (prepared from a 25% wettable powder (Example F3, b)) or in the form of an emulsion (prepared from a 25% emulsifiable concentrate (Example F1, c)) (500 liters of water/ha). The rate of application is 500 g of active substance/ha. The test plants are then grown in the greenhouse under optimum conditions. The evaluation is carried out 3 weeks after application, sing a scale of nine ratings (1=total damage, 9=no action). Ratings of from 1 to 4 (especially from 1 to 3) indicate good to very good herbicidal action. Test plants: Avena (Ave), Lolium (Lol), Setaria (Set).

Setaria (Set) [21] = test: as above; set-up: key: 1=total damage; 9=no action; conditions: 500 g of active substance/ha; MERGE oil additive 0.7% by weight of the spray mixture; evaluation 3 weeks after application; scale of nine ratings
Description: as §4

Lolium (Lol) [22] = test: as above; set-up: key: 1=total damage; 9=no action; conditions: 500 g of active substance/ha; MERGE oil additive 0.7% by weight of the spray mixture; evaluation 3 weeks after application; scale of nine ratings
Description: as §4

| SMILES | Post-emergence action, rating, Ave (Avena (Ave) [1]) | Post-emergence action, rating, Set (Setaria (Set) [2]) | Post-emergence action, rating, Lol (Lolium (Lol) [3]) | further results |
| --- | --- | --- | --- | --- |
| CCc1cc(C)cc(CC)c1-c1c(OC(=O)C(C)(C)C)n2n(c1=O)CC(OC)C(OC)C2 (stereo not drawn) [1.08] | 1 | 1 | 1 |  |
| CCc1cc(C)cc(CC)c1-c1c(O)n2n(c1=O)CC(OCCO)CC2 (stereo not drawn) [1.17] | 1 | 2 | 1 |  |
| CCc1cc(C)cc(CC)c1-c1c(O)n2n(c1=O)CC(OC(C)C(=O)OC)CC2 (stereo not drawn) [1.26] | 1 | 1 | 2 |  |
| CCc1cc(C)cc(CC)c1-c1c(O)n2n(c1=O)CC(OCC(=O)OC)CC2 (stereo not drawn) [1.23] | 1 | 1 | 1 |  |
| Cc1cc(C)c(-c2c(OC(=O)C(C)(C)C)n3n(c2=O)CCCC3)c(C)c1 [compound A, reference compound] |  |  |  | Pre-emergence action rating, Alo (Alopecurus (Alo) [4]): 2; Pre-emergence action, rating, Ave (Avena (Ave) [5]): 4; Pre-emergence action rating, Sor (Sorghum (Sor) [6]): 4; Pre-emergence action, rating, Set (Setaria (Set) [7]): 2; Pre-emergence action rating, Ech (Echinochloa (Ech)): 5; Pre-emergence action, rating, Lol (Lolium (Lol) [8]): 1; Pre-emergence action rating, Bra (Brachiaria (Bra) [9]): 3; Pre-emergence action rating, Pan (Panicum (Pan) [10]): 1; Pre-emergence action rating, Dig (Digitaria (Dig) [11]): 4; Post-emergence action rating, Dig (Digitaria (Dig) [12]): 2; Post-emergence action rating, Alo (Alopecurus (Alo) [13]): 3; Post-emergence action, rating, Ave (Avena (Ave) [14]): 3; Post-emergence action rating, Sor (Sorghum (Sor) [15]): 3; Post-emergence action, rating, Set (Setaria (Set) [16]): 2; Post-emergence action, rating, Lol (Lolium (Lol) [17]): 2; Post-emergence action rating, Bra (Brachiaria (Bra) [18]): 2; Post-emergence action rating, Pan (Panicum (Pan) [19]): 1; Post-emergence action rating, Ech (Echinocloa (Ech)): 1 |
| CCc1cc(C)cc(CC)c1-c1c(O)n2n(c1=O)CC(OCC(C)C)CC2 (stereo not drawn) [1.11] | 1 | 1 | 1 |  |
| CCc1cc(C)cc(CC)c1-c1c(O)n2n(c1=O)CC(OCCOC)CC2 (stereo not drawn) [1.15] | 1 | 1 | 2 |  |
| CCc1cc(C)cc(CC)c1-c1c(O)n2n(c1=O)CC(OCCOCCOC)C(O)C2 (stereo not drawn) [1.35] | 1 | 1 | 1 | Pre-emergence action, rating, Ave (Avena (Ave) [20]): 1; Pre-emergence action, rating, Set (Setaria (Set) [21]): 1; Pre-emergence action, rating, Lol (Lolium (Lol) [22]): 1 |
